Reference: ChEMBL document CHEMBL1201862, “PubChem BioAssay data set” (2004)
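96-well plates; 48 h exposure; 5 concentrations. Endpoints by linear interpolation between flanking doses. Not reached: highest tested concentration assigned. GI50: concentration for 50% inhibition of growth.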 Active and inactive are the calls of the source. No stated cut-off is given here; in the data, active = GI50 up to about 1.1 µM and inactive = higher.

Legend:
Assay in all cases: DTP human tumour cell line panel, 48 h
[1] = test system: CCRF-CEM
[2] = test system: HCT-116
[3] = test system: HOP-62
[4] = test system: HT-29
[5] = test system: KM12
[6] = test system: MOLT-4
[7] = test system: Malme-3M
[8] = test system: NCI-H522
[9] = test system: OVCAR-4
[10] = test system: OVCAR-8
[11] = test system: SF-268
[12] = test system: SF-539
[13] = test system: SK-MEL-28
[14] = test system: SK-MEL-2
[15] = test system: UACC-257
[16] = test system: UACC-62
[17] = test system: HCT-15
[18] = test system: SK-MEL-5

## COc1ccc(/C=C/c2cc(OC)c(OCc3ccccc3)c(OC)c2)cc1
[1]
  GI50: > 100 µM (inactive)
[2]
  GI50: > 100 µM (inactive)
[3]
  GI50: > 100 µM (inactive)
[4]
  GI50: 27.9 µM (inactive)
[5]
  GI50: > 100 µM (inactive)
[6]
  GI50: 29 µM (inactive)
[7]
  GI50: > 100 µM (inactive)
[8]
  GI50: > 100 µM (inactive)
[9]
  GI50: 23.6 µM (inactive)
[10]
  GI50: > 100 µM (inactive)
[11]
  GI50: > 100 µM (inactive)
[12]
  GI50: > 100 µM (inactive)
[13]
  GI50: 56.6 µM (inactive)
[14]
  GI50: > 100 µM (inactive)
[15]
  GI50: 99.1 µM (inactive)
[16]
  GI50: 77.1 µM (inactive)

## Nc1nc(=O)[nH]c2c1cnn2C1CCCCO1 (stereo unspecified)
[1]
  GI50: > 100 µM (inactive)
[2]
  GI50: > 100 µM (inactive)
[17]
  GI50: > 100 µM
[4]
  GI50: > 100 µM (inactive)
[5]
  GI50: > 100 µM (inactive)
[6]
  GI50: > 100 µM (inactive)
[7]
  GI50: > 100 µM (inactive)
[9]
  GI50: > 100 µM (inactive)
[10]
  GI50: > 100 µM (inactive)
[11]
  GI50: > 100 µM (inactive)
[12]
  GI50: > 100 µM (inactive)
[13]
  GI50: > 100 µM (inactive)
[14]
  GI50: > 100 µM (inactive)
[18]
  GI50: 70.3 µM (inactive)
[15]
  GI50: > 100 µM (inactive)

## Nc1nc(SCc2ccccc2Cl)c2[nH]cnc2n1
[1]
  GI50: 54.5 µM (inactive)
[2]
  GI50: 59.8 µM (inactive)
[17]
  GI50: 51.5 µM
[3]
  GI50: 25.5 µM (inactive)
[5]
  GI50: 74.3 µM (inactive)
[6]
  GI50: 34.6 µM (inactive)
[7]
  GI50: 70.8 µM (inactive)
[8]
  GI50: 56.4 µM (inactive)
[10]
  GI50: 55.7 µM (inactive)
[11]
  GI50: 58.7 µM (inactive)
[12]
  GI50: 74.8 µM (inactive)
[13]
  GI50: 68.9 µM (inactive)
[14]
  GI50: 80.4 µM (inactive)
[18]
  GI50: 48.8 µM (inactive)
[15]
  GI50: 56 µM (inactive)
[16]
  GI50: 61 µM (inactive)

## Cc1cccc(C(=O)c2cccc3ccccc23)c1C(=O)O
[1]
  GI50: > 100 µM (inactive)
[2]
  GI50: > 100 µM (inactive)
[17]
  GI50: > 100 µM
[3]
  GI50: > 100 µM (inactive)
[4]
  GI50: > 100 µM (inactive)
[6]
  GI50: > 100 µM (inactive)
[7]
  GI50: > 100 µM (inactive)
[8]
  GI50: > 100 µM (inactive)
[9]
  GI50: > 100 µM (inactive)
[10]
  GI50: > 100 µM (inactive)
[11]
  GI50: > 100 µM (inactive)
[12]
  GI50: > 100 µM (inactive)
[13]
  GI50: > 100 µM (inactive)
[14]
  GI50: > 100 µM (inactive)
[18]
  GI50: > 100 µM (inactive)
[15]
  GI50: > 100 µM (inactive)
[16]
  GI50: > 100 µM (inactive)

## O=c1c2cc3c(=O)n(CCc4ccccc4CO)c(=O)c3cc2c(=O)n1CCc1ccccc1CO
[1]
  GI50: > 100 µM (inactive)
[2]
  GI50: > 100 µM (inactive)
[17]
  GI50: > 100 µM
[4]
  GI50: > 100 µM (inactive)
[5]
  GI50: > 100 µM (inactive)
[6]
  GI50: > 100 µM (inactive)
[7]
  GI50: > 100 µM (inactive)
[8]
  GI50: > 100 µM (inactive)
[9]
  GI50: > 100 µM (inactive)
[10]
  GI50: > 100 µM (inactive)
[11]
  GI50: > 100 µM (inactive)
[12]
  GI50: > 100 µM (inactive)
[13]
  GI50: > 100 µM (inactive)
[14]
  GI50: > 100 µM (inactive)
[18]
  GI50: > 100 µM (inactive)
[15]
  GI50: > 100 µM (inactive)
[16]
  GI50: > 100 µM (inactive)

## C=C(N=[N+]=[N-])c1cn(C2CC(O)C(CO)O2)c(=O)[nH]c1=O (stereo unspecified)
[1]
  GI50: > 100 µM (inactive)
[2]
  GI50: > 100 µM (inactive)
[17]
  GI50: > 100 µM
[3]
  GI50: > 100 µM (inactive)
[4]
  GI50: > 100 µM (inactive)
[5]
  GI50: > 100 µM (inactive)
[6]
  GI50: > 100 µM (inactive)
[7]
  GI50: > 100 µM (inactive)
[8]
  GI50: > 100 µM (inactive)
[10]
  GI50: > 100 µM (inactive)
[12]
  GI50: > 100 µM (inactive)
[13]
  GI50: > 100 µM (inactive)
[14]
  GI50: > 100 µM (inactive)
[18]
  GI50: > 100 µM (inactive)
[16]
  GI50: > 100 µM (inactive)

## C=CCc1cc(OC)c2c(c1)C(OC(C)=O)CC(c1ccc(OC)c(OC)c1)O2 (stereo unspecified)
[1]
  GI50: > 100 µM (inactive)
[2]
  GI50: > 100 µM (inactive)
[17]
  GI50: > 100 µM
[3]
  GI50: 45.4 µM (inactive)
[4]
  GI50: > 100 µM (inactive)
[5]
  GI50: > 100 µM (inactive)
[6]
  GI50: > 100 µM (inactive)
[7]
  GI50: > 100 µM (inactive)
[8]
  GI50: > 100 µM (inactive)
[9]
  GI50: > 100 µM (inactive)
[11]
  GI50: > 100 µM (inactive)
[12]
  GI50: 47.4 µM (inactive)
[13]
  GI50: > 100 µM (inactive)
[18]
  GI50: > 100 µM (inactive)
[15]
  GI50: > 100 µM (inactive)
[16]
  GI50: > 100 µM (inactive)

## CCC(C)CN1C(=O)NC(Cc2ccccc2)C1=O (stereo unspecified)
[3]
  GI50: > 100 µM (inactive)
[4]
  GI50: > 100 µM (inactive)
[5]
  GI50: > 100 µM (inactive)
[7]
  GI50: > 100 µM (inactive)
[8]
  GI50: > 100 µM (inactive)
[10]
  GI50: > 100 µM (inactive)
[11]
  GI50: > 100 µM (inactive)
[12]
  GI50: > 100 µM (inactive)
[13]
  GI50: > 100 µM (inactive)
[14]
  GI50: > 100 µM (inactive)
[15]
  GI50: 22.1 µM (inactive)

## O=C(Nc1ccc(Cl)cc1Cl)/C(Cl)=C1/Sc2ccccc2NC1=O
[1]
  GI50: 22.8 µM (inactive)
[2]
  GI50: 23 µM (inactive)
[17]
  GI50: 25.9 µM
[3]
  GI50: 39.7 µM (inactive)
[6]
  GI50: 25.6 µM (inactive)
[7]
  GI50: 20 µM (inactive)
[8]
  GI50: 18.8 µM (inactive)
[9]
  GI50: 24.7 µM (inactive)
[10]
  GI50: 50.5 µM (inactive)
[11]
  GI50: 26.7 µM (inactive)
[12]
  GI50: 30.2 µM (inactive)
[13]
  GI50: 23.6 µM (inactive)
[14]
  GI50: 15.2 µM (inactive)
[18]
  GI50: 19.3 µM (inactive)
[16]
  GI50: 25.6 µM (inactive)

## CC(C)=CC(=O)Cc1nc2ccccc2[nH]c1=O
[1]
  GI50: 64.7 µM (inactive)
[2]
  GI50: > 100 µM (inactive)
[17]
  GI50: > 100 µM
[3]
  GI50: 76 µM (inactive)
[4]
  GI50: > 100 µM (inactive)
[5]
  GI50: > 100 µM (inactive)
[6]
  GI50: > 100 µM (inactive)
[7]
  GI50: > 100 µM (inactive)
[9]
  GI50: 52.2 µM (inactive)
[11]
  GI50: > 100 µM (inactive)
[12]
  GI50: > 100 µM (inactive)
[13]
  GI50: > 100 µM (inactive)
[14]
  GI50: > 100 µM (inactive)
[18]
  GI50: > 100 µM (inactive)
[15]
  GI50: > 100 µM (inactive)
[16]
  GI50: > 100 µM (inactive)

## C#CCC1(C(=O)OCC)C(=O)c2ccccc2N(C)C1=O (stereo unspecified)
[1]
  GI50: > 100 µM (inactive)
[17]
  GI50: > 100 µM
[4]
  GI50: > 100 µM (inactive)
[6]
  GI50: 45.2 µM (inactive)
[7]
  GI50: > 100 µM (inactive)
[8]
  GI50: 12.1 µM (inactive)
[10]
  GI50: > 100 µM (inactive)
[11]
  GI50: 58.7 µM (inactive)
[12]
  GI50: > 100 µM (inactive)
[13]
  GI50: > 100 µM (inactive)
[14]
  GI50: > 100 µM (inactive)
[18]
  GI50: 70.3 µM (inactive)
[16]
  GI50: > 100 µM (inactive)

## C/C(CCn1[nH]c(=O)ccc1=O)=N\NC(=O)C(=O)NN
[1]
  GI50: > 100 µM (inactive)
[17]
  GI50: > 100 µM
[3]
  GI50: > 100 µM (inactive)
[4]
  GI50: > 100 µM (inactive)
[5]
  GI50: > 100 µM (inactive)
[6]
  GI50: > 100 µM (inactive)
[7]
  GI50: > 100 µM (inactive)
[8]
  GI50: > 100 µM (inactive)
[9]
  GI50: > 100 µM (inactive)
[10]
  GI50: > 100 µM (inactive)
[11]
  GI50: > 100 µM (inactive)
[12]
  GI50: > 100 µM (inactive)
[13]
  GI50: > 100 µM (inactive)
[14]
  GI50: > 100 µM (inactive)
[18]
  GI50: > 100 µM (inactive)
[15]
  GI50: > 100 µM (inactive)
[16]
  GI50: > 100 µM (inactive)

## c1ccc(/N=C2\C(=N/c3ccccc3)N(C3CCCCC3)/C(=N\C3CCCCC3)N2c2ccccc2)cc1
[2]
  GI50: > 100 µM (inactive)
[17]
  GI50: > 100 µM
[3]
  GI50: > 100 µM (inactive)
[4]
  GI50: > 100 µM (inactive)
[5]
  GI50: > 100 µM (inactive)
[6]
  GI50: > 100 µM (inactive)
[7]
  GI50: > 100 µM (inactive)
[10]
  GI50: > 100 µM (inactive)
[13]
  GI50: > 100 µM (inactive)
[14]
  GI50: > 100 µM (inactive)
[18]
  GI50: > 100 µM (inactive)
[15]
  GI50: > 100 µM (inactive)
